Patent publication US7317020B2, “Isolation and structure of Cribrostatin 6” (Arizona Board of Regents, a body corporate of the State of …, priority 2003, dated 2008)
Values after ≈ are worked out from the molar mass of the structure shown.

Columns and labels:
bacteria = conditions: in words; Pettit et al., J. Nat. Prod. 2000; cited from earlier work
fungi = conditions: in words; Pettit et al., J. Nat. Prod. 2000; cited from earlier work
NCI-H460 = test: Cancer cell growth inhibition, human cancer cell line panel; format: cell-based; conditions: NCI-H460, Lung-NSC, read-out: Inhibitory Activity (GI50)
BXPC-3 = test: as above; format: cell-based; conditions: BXPC-3, Pancreas-adenocarcinoma, read-out: Inhibitory Activity (GI50)
SF-268 = test: as above; format: cell-based; conditions: SF-268, CNS Glioblastoma, read-out: Inhibitory Activity (GI50)
[1] = system: P388 lymphocytic leukemia; test: Cancer cell growth inhibition, murine P388 lymphocytic leukemia; format: cell-based, mouse
Excerpt: Earlier we had observed a number of biologically active blue to black colored fractions arising during P388 lymphocytic leukemia guided separations of a 195 g dichloromethane-soluble portion of the extract obtained from 350 kg (wet wt.) of Cribrochalina sp. The cancer cell growth (P-388) inhibitory dark-colored fractions were finally separated by a successive series of gel permeation and partition chromatographic techniques on Sephadex LH-20. That sequence was followed by high-speed countercurrent distribution using an Ito Coil-Planet centrifuge to afford 88 mg of a dark-blue constituent (P388 ED50 0.3 μg/ml), designated cribrostatin 6 (3). Owing to difficulties in unequivocally deducing the structure of this interesting substance based on spectral evidence, attempts were made at various times over a ten year period to reach a correct solution and/or to produce crystals suitable for X-ray structure determination. We were eventually pleased to find that cribrostatin 6 (3) would crystallize from acetone following long cold storage of the solution. To follow is a summary of the spectral and X-ray crystallographic interpretation that completed a correct structural assignment for cribrostatin 6 (3).
Isolation of Cribrostatin 6 (1). The blue marine sponge Cribrochalina sp. was collected and extracted as known to one of skill in the art, as described in Pettit, G., et al., J. Nat. Prod. […]

[2] = system: Streptococcus pneumoniae (ATCC 6303); test: Broth microdilution susceptibility assay; format: cell-based; conditions: ATCC6303, read-out: Minimum Inhibitory Concentration
Excerpt: (§1) Compounds were screened against bacteria and fungi according to established broth microdilution susceptibility assays, pursuant to the National Committee for Clinical Laboratory Standards, Methods for Dilution Antimicrobial Susceptibility Tests for Bacteria that Grow Aerobically, Approved Standard M7-A4, Wayne, Pa.: NCCLS, 1997, and the National Conmnittee for Clinical Laboratory Standards, Reference Method for Broth Dilution Antifungal Susceptibility Testing of Yeasts, Approved Standard M27-A, Wayne, Pa.: NCCLS, 1997. The minimum inhibitory concentration was defined as the lowest concentration of compound that inhibited all visible growth of the test organism (optically clear). Assays were repeated on separate days.

[3] = system: Escherichia coli (ATCC 25922); test: Broth microdilution susceptibility assay; format: cell-based; conditions: ATCC25922, read-out: Minimum Inhibitory Concentration
Excerpt: as §1

[4] = system: Invasive S. pneumoniae (clinical isolate); test: Broth microdilution susceptibility assay; format: cell-based; conditions: Streptococcus pneumoniae, read-out: Minimum Inhibitory Concentration
Excerpt: as §1

[5] = system: Penicillin-resistant S. pneumoniae (clinical isolate); test: Broth microdilution susceptibility assay; format: cell-based; conditions: Streptococcus pneumoniae, read-out: Minimum Inhibitory Concentration
Excerpt: as §1

[6] = system: Cryptococcus neoformans (ATCC 90112); test: Broth microdilution susceptibility assay; format: cell-based; conditions: ATCC90112, read-out: Minimum Inhibitory Concentration
Excerpt: as §1

[7] = system: Group A Streptococcus (clinical isolate); test: Broth microdilution susceptibility assay; format: cell-based; conditions: read-out: Minimum Inhibitory Concentration
Excerpt: as §1

[8] = system: Stenotrophomonas maltophilia (ATCC 13637); test: Broth microdilution susceptibility assay; format: cell-based; conditions: ATCC13637, read-out: Minimum Inhibitory Concentration
Excerpt: as §1

[9] = system: Bacillus subtilis (clinical isolate); test: Broth microdilution susceptibility assay; format: cell-based; conditions: read-out: Minimum Inhibitory Concentration
Excerpt: as §1

[10] = system: Micrococcus luteus (Presque Isle 456); test: Broth microdilution susceptibility assay; format: cell-based; conditions: read-out: Minimum Inhibitory Concentration
Excerpt: as §1

[11] = system: Candida albicans (ATCC 90028); test: Broth microdilution susceptibility assay; format: cell-based; conditions: ATCC90028, read-out: Minimum Inhibitory Concentration
Excerpt: as §1

[12] = system: Methicillin-resistant S. aureus (clinical isolate); test: Broth microdilution susceptibility assay; format: cell-based; conditions: Staphylococcus aureus, read-out: Minimum Inhibitory Concentration
Excerpt: as §1

[13] = system: Enterobacter cloacae (ATCC 13047); test: Broth microdilution susceptibility assay; format: cell-based; conditions: ATCC13047, read-out: Minimum Inhibitory Concentration
Excerpt: as §1

[14] = system: Enterococcus faecalis (ATCC 29212); test: Broth microdilution susceptibility assay; format: cell-based; conditions: ATCC29212, read-out: Minimum Inhibitory Concentration
Excerpt: as §1

[15] = system: Vancomycin-resistant E. faecalis (clinical isolate); test: Broth microdilution susceptibility assay; format: cell-based; conditions: Enterococcus faecalis, read-out: Minimum Inhibitory Concentration
Excerpt: as §1

[16] = system: Neisseria gonorrhoeae (ATCC 49226); test: Broth microdilution susceptibility assay; format: cell-based; conditions: ATCC49226, read-out: Minimum Inhibitory Concentration
Excerpt: as §1

[17] = system: Staphylococcus aureus (ATCC 29213); test: Broth microdilution susceptibility assay; format: cell-based; conditions: ATCC29213, read-out: Minimum Inhibitory Concentration
Excerpt: as §1

DU-145 = test: Cancer cell growth inhibition, human cancer cell line panel; format: cell-based; conditions: DU-145, Prostate, read-out: Inhibitory Activity (GI50)
MCF-7 = test: as above; format: cell-based; conditions: MCF7, MCF-7, Breast-adenocarcinoma, read-out: Inhibitory Activity (GI50)
KM20L2 = test: as above; format: cell-based; conditions: KM-20L2, KM20L2, Colon-adenocarcinoma, read-out: Inhibitory Activity (GI50)

C/C=C(/C)C(=O)OCc1nccc2c1C(=O)C(N)=C(C)C2=O [Cribrostatin 3]
antibacterial activity (bacteria): antibacterial
antifungal activity (fungi): not antifungal

CCOC1=C(C)C(=O)c2ccn3c(C)ncc3c2C1=O [Cribrostatin 6, 9-ethoxy-3,8-dimethyl-imidazo[5,1-a]isoquinoline-7, 10-dione]
GI50 (NCI-H460): > 1 µg/mL
GI50 (BXPC-3): > 1 µg/mL
GI50 (SF-268): 0.24 µg/mL (≈ 0.888 µM)
GI50 ([1]; P388, Mouse Leukemia, read-out: Inhibitory Activity (GI50)): 0.29 µg/mL (≈ 1.07 µM)
P388 ED50 ([1]; murine P-388 lymphocytic leukemia cell line): 0.3 µg/mL
MIC [2]: 0.5 µg/mL (≈ 1.85 µM)
MIC [3]: > 64 µg/mL
MIC [4]: 1 µg/mL (≈ 3.7 µM)
MIC [5]: 2 µg/mL (≈ 7.4 µM)
MIC [6]: 2 µg/mL (≈ 7.4 µM)
MIC [7]: 16 µg/mL (≈ 59.2 µM)
MIC [8]: > 64 µg/mL
MIC [9]: 2 µg/mL (≈ 7.4 µM)
MIC [10]: 16 µg/mL (≈ 59.2 µM)
MIC [11]: 64 µg/mL (≈ 237 µM)
MIC [12]: 16 µg/mL (≈ 59.2 µM)
MIC [13]: > 64 µg/mL
MIC [14]: 32 µg/mL (≈ 118 µM)
MIC [15]: 32 µg/mL (≈ 118 µM)
MIC [16]: 0.0625 µg/mL (≈ 0.231 µM)
MIC [17]: 16 µg/mL (≈ 59.2 µM)
GI50 (DU-145): 0.38 µg/mL (≈ 1.41 µM)
GI50 (MCF-7): 0.21 µg/mL (≈ 0.777 µM)
GI50 (KM20L2): > 1 µg/mL

CC1=C(N)C(=O)c2c(ccnc2C)C1=O [Cribrostatin 1]
antibacterial activity (bacteria): antibacterial
antifungal activity (fungi): not antifungal
